Measurements: PubChem BioAssay AID248 (DTP/NCI, 2004)
Several values for one entry are separate records, joined by “and”; a condition that tells them apart may be missing. Equal values may be shown once. Inconclusive results and toxic doses are left out. Cut-off read from the data, not from the text of the source: active = T/C of 150% or more; inactive = T/C below 125%.

Test system: L1210 leukemia ip in BDF1 mice, survival T/C
Assay: NCI In Vivo Anticancer Drug Screen. Data for tumor model L1210 Leukemia (intraperitoneal) in B6D2F1 (BDF1) mice
Settings: endpoint: mean survival time, higher = longer survival
Outline: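 Value reflects the ratio of survival in compound-treated mice to survival in vehicle-treated controls, with both groups carrying the same transplanted tumor.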

[1] = dose: 25.0 mg/kg/injection, schedule: Q04DX002 (ip), vehicle: Klucel (hydroxypropylcellulose) (HPC)
[2] = dose: 50.0 mg/kg/injection, schedule: Q04DX002 (ip), vehicle: Klucel (hydroxypropylcellulose) (HPC)
[3] = dose: 100.0 mg/kg/injection, schedule: Q04DX002 (ip), vehicle: Klucel (hydroxypropylcellulose) (HPC)
[4] = dose: 100.0 mg/kg/injection, schedule: Q04DX003 (ip), vehicle: saline with Tween-80
[5] = dose: 200.0 mg/kg/injection, schedule: Q04DX003 (ip), vehicle: saline with Tween-80
[6] = dose: 400.0 mg/kg/injection, schedule: Q04DX003 (ip), vehicle: saline with Tween-80
[7] = dose: 100.0 mg/kg/injection, schedule: Q01DX009 (ip), vehicle: saline with Tween-80
[8] = dose: 200.0 mg/kg/injection, schedule: Q01DX009 (ip), vehicle: saline with Tween-80
[9] = dose: 200.0 mg/kg/injection, schedule: Q04DX002 (ip), vehicle: Klucel (hydroxypropylcellulose) (HPC)
[10] = dose: 100.0 mg/kg/injection, schedule: Q04DX003 (ip), vehicle: Klucel (hydroxypropylcellulose) (HPC)
[11] = dose: 200.0 mg/kg/injection, schedule: Q04DX003 (ip), vehicle: Klucel (hydroxypropylcellulose) (HPC)
[12] = dose: 400.0 mg/kg/injection, schedule: Q04DX003 (ip), vehicle: Klucel (hydroxypropylcellulose) (HPC)
[13] = dose: 100.0 mg/kg/injection, schedule: Q01DX009 (ip), vehicle: Klucel (hydroxypropylcellulose) (HPC)
[14] = dose: 200.0 mg/kg/injection, schedule: Q01DX009 (ip), vehicle: Klucel (hydroxypropylcellulose) (HPC)
[15] = dose: 400.0 mg/kg/injection, schedule: Q04DX002 (ip), vehicle: Klucel (hydroxypropylcellulose) (HPC)

Measured: T/C

COC1OC(COC(c2ccccc2)(c2ccccc2)c2ccccc2)C(OC(=S)SCc2ccccc2)C(OC)C1OC (centres undefined)
inactive: [1] 108 % of control | [2] 104 % of control | [3] 104 % of control

CCc1c(Nc2ccc(C)cc2)[nH]c(N)nc1=S
inactive: dose: 200.0 mg/kg/injection, schedule: Q01DX Z (ip), vehicle: methylcellulose (MC) 89 % of control

NC(=S)Nc1cccnc1
inactive: [1] 91 % of control | [2] 91 % of control | [3] 97 % of control

CC(=O)OCC1OC(Oc2c(C)cc([N+](=O)[O-])cc2[N+](=O)[O-])C(OC(C)=O)C(OC(C)=O)C1OC(C)=O (centres undefined)
inactive: [4] 94 % of control | [5] 100 % of control | [6] 100 % of control

NC(=O)c1nccnc1Cl
inactive: [7] 91 % of control | [4] 100 % of control | [8] 98 % of control | [5] 97 % of control | [6] 110 % of control

C[C@H]1CC[C@@H]2[C@@H](C)[C@H]3[C@H](C[C@H]4[C@@H]5CC=C6C[C@@H](O)CC[C@]6(C)[C@H]5C[C@H](O)[C@]34C)N2C1
inactive: dose: 100.0 mg/kg/injection, schedule: Q01DX001 (sc), vehicle: steriod suspending solution 100 % of control | dose: 200.0 mg/kg/injection, schedule: Q01DX001 (sc), vehicle: steriod suspending solution 91 % of control | dose: 400.0 mg/kg/injection, schedule: Q01DX001 (sc), vehicle: steriod suspending solution 91 % of control

CCNCCCCCCNCC
inactive: dose: 12.5 mg/kg/injection, schedule: Q01DX009 (ip), vehicle: saline 97 % of control | dose: 25.0 mg/kg/injection, schedule: Q01DX009 (ip), vehicle: saline 108 % of control | dose: 25.0 mg/kg/injection, schedule: Q04DX003 (ip), vehicle: saline 98 % of control | dose: 50.0 mg/kg/injection, schedule: Q01DX009 (ip), vehicle: saline 93 % of control | dose: 50.0 mg/kg/injection, schedule: Q04DX003 (ip), vehicle: saline 107 % of control | dose: 100.0 mg/kg/injection, schedule: Q04DX003 (ip), vehicle: saline 87 % of control

Cc1cc(O)c(O)c(S(=O)(=O)c2ccccc2)c1
inactive: dose: 87.5 mg/kg/injection, schedule: Q01DX009 (ip), vehicle: saline with Tween-80 94 % of control | dose: 175.0 mg/kg/injection, schedule: Q01DX009 (ip), vehicle: saline with Tween-80 96 % of control | dose: 350.0 mg/kg/injection, schedule: Q01DX009 (ip), vehicle: saline with Tween-80 100 % of control

COC(=O)Cc1ccccc1C(=O)OC
inactive: [4] 107 % of control | [5] 96 % of control | [6] 100 % of control

O=c1[nH]c2ccccc2nc1C(Cl)(Cl)Cl
inactive: [3] 112 % of control | [9] 105 % of control

Nc1ncnc2nc(-c3ccc(OCCCOc4ccccc4)c(Cl)c3)[nH]c12
inactive: dose: 6.25 mg/kg/injection, schedule: Q01DX001 (ip), vehicle: saline with Tween-80 94 % of control | dose: 12.5 mg/kg/injection, schedule: Q01DX001 (ip), vehicle: saline with Tween-80 89 % of control | dose: 50.0 mg/kg/injection, schedule: Q01DX001 (ip), vehicle: saline with Tween-80 88 % of control

CCCn1c2c(c(=O)n(CC)c1=O)S(=O)C(OCC)C(=O)N2 (centres undefined)
inactive: dose: 78.0 mg/kg/injection, schedule: Q01DX Z (ip), vehicle: other 92 % of control | dose: 116.0 mg/kg/injection, schedule: Q01DX Z (ip), vehicle: other 97 % of control and 104 % of control | dose: 175.0 mg/kg/injection, schedule: Q01DX Z (ip), vehicle: other 98 % of control and 87 % of control | dose: 262.5 mg/kg/injection, schedule: Q01DX Z (ip), vehicle: other 93 % of control and 103 % of control

Cc1nc2ccc(N=Cc3ccc(N(CCCl)CCCl)cc3)cc2[nH]1
inactive: [10] 102 % of control | [11] 98 % of control | [12] 104 % of control

COC1C(O)C(CO)OC1n1cnc2c(=S)nc[nH]c21 (centres undefined)
inactive: dose: 50.0 mg/kg/injection, schedule: Q01DX001 (ip), vehicle: carboxymethylcellulose (CMC) 102 % of control | dose: 88.8 mg/kg/injection, schedule: Q01DX001 (ip), vehicle: carboxymethylcellulose (CMC) 102 % of control and 112 % of control | dose: 100.0 mg/kg/injection, schedule: Q01DX001 (ip), vehicle: carboxymethylcellulose (CMC) 102 % of control | dose: 133.0 mg/kg/injection, schedule: Q01DX001 (ip), vehicle: carboxymethylcellulose (CMC) 110 % of control and 116 % of control | dose: 200.0 mg/kg/injection, schedule: Q01DX001 (ip), vehicle: carboxymethylcellulose (CMC) 110 % of control and 116 % of control | dose: 300.0 mg/kg/injection, schedule: Q01DX001 (ip), vehicle: carboxymethylcellulose (CMC) 102 % of control and 116 % of control | dose: 400.0 mg/kg/injection, schedule: Q01DX001 (ip), vehicle: carboxymethylcellulose (CMC) 102 % of control

O=C(O)/C(=C\c1ccccc1)c1cccc2ccccc12
inactive: [13] 100 % of control | [14] 98 % of control

C=CCC(=O)OCC
inactive: dose: 222.0 mg/kg/injection, schedule: Q01DX Z (ip), vehicle: saline 94 % of control | dose: 333.0 mg/kg/injection, schedule: Q01DX Z (ip), vehicle: saline 108 % of control | dose: 500.0 mg/kg/injection, schedule: Q01DX Z (ip), vehicle: saline 94 % of control

CCOC(=O)c1cn(C2OC(COC(=O)c3ccccc3)C(OC(=O)c3ccccc3)C2OC(=O)c2ccccc2)c(=O)nc1Nc1ccccc1Cl (centres undefined)
inactive: dose: 25.0 mg/kg/injection, schedule: Q01DX005 (ip), vehicle: saline 104 % of control | dose: 50.0 mg/kg/injection, schedule: Q01DX005 (ip), vehicle: saline 105 % of control | dose: 75.0 mg/kg/injection, schedule: Q01DX005 (ip), vehicle: saline 105 % of control | dose: 100.0 mg/kg/injection, schedule: Q01DX005 (ip), vehicle: saline 123 % of control | dose: 200.0 mg/kg/injection, schedule: Q01DX005 (ip), vehicle: saline 92 % of control

CC1=N/C(=C/c2ccc([N+](=O)[O-])s2)C(=O)O1
inactive: [2] 112 % of control | [3] 97 % of control | [9] 95 % of control and 115 % of control | [15] 98 % of control

CSc1nc(-c2ccc([N+](=O)[O-])cc2)oc1/N=C/c1ccc([N+](=O)[O-])cc1
inactive: [3] 96 % of control | [9] 96 % of control | [15] 96 % of control

Cc1cc(C)[c]([Hg][Cl])c(C)c1
inactive: dose: 6.0 mg/kg/injection, schedule: Q01DX009 (ip), vehicle: saline with Tween-80 100 % of control | dose: 6.0 mg/kg/injection, schedule: Q04DX003 (ip), vehicle: saline with Tween-80 94 % of control | dose: 12.0 mg/kg/injection, schedule: Q01DX009 (ip), vehicle: saline with Tween-80 87 % of control | dose: 12.0 mg/kg/injection, schedule: Q04DX003 (ip), vehicle: saline with Tween-80 103 % of control | dose: 25.0 mg/kg/injection, schedule: Q01DX009 (ip), vehicle: saline with Tween-80 90 % of control | dose: 25.0 mg/kg/injection, schedule: Q04DX003 (ip), vehicle: saline with Tween-80 92 % of control

CCC(=O)Nc1ccc(F)cc1
inactive: dose: 100.0 mg/kg/injection, schedule: Q01DX001 (ip), vehicle: Klucel (hydroxypropylcellulose) (HPC) 105 % of control | [13] 99 % of control | [10] 94 % of control | dose: 200.0 mg/kg/injection, schedule: Q01DX001 (ip), vehicle: Klucel (hydroxypropylcellulose) (HPC) 99 % of control | [14] 113 % of control | [11] 94 % of control | dose: 400.0 mg/kg/injection, schedule: Q01DX001 (ip), vehicle: Klucel (hydroxypropylcellulose) (HPC) 93 % of control | dose: 400.0 mg/kg/injection, schedule: Q01DX009 (ip), vehicle: Klucel (hydroxypropylcellulose) (HPC) 120 % of control | [12] 105 % of control

CC1C=CCP1(C)=O (centres undefined)
inactive: [7] 91 % of control | [8] 96 % of control | dose: 400.0 mg/kg/injection, schedule: Q01DX009 (ip), vehicle: saline with Tween-80 94 % of control
